Data reported in BindingDB's records for doi:10.1016/S1074-5521(00)00004-1 (Pfizer, 2000).

Target: T1, Glycogen phosphorylase, liver form (Homo sapiens, UniProt P06737)
T1 sequence (P06737 whole entry): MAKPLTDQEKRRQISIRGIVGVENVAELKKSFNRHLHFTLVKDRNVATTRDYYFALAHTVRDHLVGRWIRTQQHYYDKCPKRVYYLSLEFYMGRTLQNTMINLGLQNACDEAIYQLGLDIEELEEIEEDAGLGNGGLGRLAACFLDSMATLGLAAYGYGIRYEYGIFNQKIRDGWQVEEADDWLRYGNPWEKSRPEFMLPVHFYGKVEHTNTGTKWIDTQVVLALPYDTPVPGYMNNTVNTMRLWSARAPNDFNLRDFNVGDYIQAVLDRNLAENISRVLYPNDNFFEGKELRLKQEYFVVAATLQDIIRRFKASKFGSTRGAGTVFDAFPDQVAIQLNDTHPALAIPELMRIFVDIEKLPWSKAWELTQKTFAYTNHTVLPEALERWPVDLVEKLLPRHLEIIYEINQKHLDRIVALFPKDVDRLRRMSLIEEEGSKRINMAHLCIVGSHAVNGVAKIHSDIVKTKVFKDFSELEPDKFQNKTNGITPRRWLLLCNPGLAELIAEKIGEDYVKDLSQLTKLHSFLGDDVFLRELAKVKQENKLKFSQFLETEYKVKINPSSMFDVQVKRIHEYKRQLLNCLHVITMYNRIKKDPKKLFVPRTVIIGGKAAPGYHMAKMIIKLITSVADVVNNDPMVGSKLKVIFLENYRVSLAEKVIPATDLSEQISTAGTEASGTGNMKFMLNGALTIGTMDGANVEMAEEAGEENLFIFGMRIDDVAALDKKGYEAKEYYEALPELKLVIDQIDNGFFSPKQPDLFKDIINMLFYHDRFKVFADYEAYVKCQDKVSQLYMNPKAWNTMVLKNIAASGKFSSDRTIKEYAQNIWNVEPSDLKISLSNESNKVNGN
Test: Inhibition Activity Assay
Conditions: pH 7.2; 22 °C
Description: Human liver glycogen phsphorylase (HLGP) activity was measured in the direction of glycogen synthesis by the release of phosphate from glucose-1-phosphate.

| SMILES | IC50 |
| --- | --- |
| COCCNC(=O)c1cc2cc(Cl)ccc2[nH]1 | 12.5 µM |
| Cc1ccc2[nH]c(C(=O)NCCOCCOCCNC(=O)c3cc4cc(Cl)ccc4[nH]3)cc2c1 [CP-526,423] | 0.006 µM |
